Results from US20240024338A1, “CARBIDOPA AND L-DOPA PRODRUGS AND METHODS OF USE” (AbbVie Inc., priority 2016, published 2024).

Experiments:
[1] = 1-Day stability study of prodrugs in aqueous solution; format: physicochemical; conditions: aqueous solution 80 μg/mL, ambient storage
Method: The L-dopa phosphate prodrugs and the carbidopa phosphate prodrugs were evaluated in a stability study.

[2] = 1-Day stability study, diphosphate combination solution; format: physicochemical; conditions: combination solution: L-dopa 3′,4′-diphosphate 35 mg/mL + carbidopa 3′,4′-diphosphate 8.7 mg/mL, pH 6.2, room temperature, nitrogen purged
Method: In addition, a solution combining the diphosphates of each compound (L-dopa 3′, 4′-diphosphate at 35 mg/mL and carbidopa 3′, 4′-diphosphate at 8.7 mg/mL) was monitored over one day at room temperature. This sample was purged with nitrogen to remove oxygen.

[3] = Phosphate prodrug solubility study in water; format: physicochemical; conditions: water, ambient, visual assessment, pH 5.5, Amorphous
Method: The L-dopa phosphate prodrugs and the carbidopa phosphate prodrugs were evaluated in a solubility study. The solubility values of the phosphate prodrugs in water under ambient conditions were determined by visual assessment. Table 13-A reports the results of the study, including the measured values for L-dopa and carbidopa.

[4] = In vitro bioconversion study (blood), human; format: in vitro ADME; conditions: prodrug 2.5 μg/mL, 37° C.
Method: (§2) The in vitro bioconversion of the L-dopa phosphate prodrugs to L-dopa and the carbidopa phosphate prodrugs to carbidopa was evaluated in several studies. In brief, the L-dopa and carbidopa phosphate prodrugs (2.5 μg/mL) were incubated with tissue homogenate or fractions from rats, mini-pigs, or human, including blood, skin homogenate (3 mg/mL), liver microsomes (1 mg/mL), liver S9 fraction (1 mg/mL), kidney S9 fraction (1 mg/mL), and intestine S9 fractions (1 mg/mL). The reaction mixtures were incubated at 37° C. for 5 to 6 time points within 1 to 2 hours. At the end of each time point, the reaction mixtures were quenched by 2 to 3 volumes of 5% trichloroacetic acid in water. After quenching, the mixtures were centrifuged at 3000 rpm for 20 minutes, and the supernatants were analyzed by LC-MS for quantitation of the prodrug, L-dopa or carbidopa. The in vitro bioconversion was assessed by monitoring both time-dependent depletion of the prodrug and the formation of the corresponding L-dopa or carbidopa.

[5] = In vitro bioconversion study (blood), mini-pig; format: in vitro ADME; conditions: prodrug 2.5 μg/mL, 37° C.
Method: as §2

[6] = In vitro bioconversion study (skin homogenates), human; conditions: human skin homogenate 3 mg/mL, prodrug 2.5 μg/mL, 37° C.
[7] = In vitro bioconversion study (skin homogenates), rat; conditions: rat skin homogenate 3 mg/mL, prodrug 2.5 μg/mL, 37° C.
[8] = In vitro bioconversion study (skin homogenates), mini-pig; conditions: mini-pig skin homogenate 3 mg/mL, prodrug 2.5 μg/mL, 37° C.
[9] = In vitro bioconversion study, human liver microsomes; format: in vitro ADME; conditions: human liver microsomes 1 mg/mL, prodrug 2.5 μg/mL, 37° C.
Method: as §2

[10] = In vitro bioconversion study, liver S9 fraction, rat; format: in vitro ADME; conditions: rat liver S9 fraction 1 mg/mL, prodrug 2.5 μg/mL, 37° C.
Method: as §2

[11] = In vitro bioconversion study, liver S9 fraction, mini-pig; format: in vitro ADME; conditions: mini-pig liver S9 fraction 1 mg/mL, prodrug 2.5 μg/mL, 37° C.
Method: as §2

[12] = In vitro bioconversion study, liver S9 fraction, human; format: in vitro ADME; conditions: human liver S9 fraction 1 mg/mL, prodrug 2.5 μg/mL, 37° C.
Method: as §2

[13] = In vitro bioconversion study, kidney S9 fraction, rat; format: in vitro ADME; conditions: rat kidney S9 fraction 1 mg/mL, prodrug 2.5 μg/mL, 37° C.
Method: as §2

[14] = In vitro bioconversion study, kidney S9 fraction, human; format: in vitro ADME; conditions: human kidney S9 fraction 1 mg/mL, prodrug 2.5 μg/mL, 37° C.
Method: as §2

[15] = In vitro bioconversion study (intestinal S9 fractions), human; format: in vitro ADME; conditions: human intestinal S9 fraction 1 mg/mL, prodrug 2.5 μg/mL, 37° C.
From the text: (§1) The t1/2 appeared to be shorter in human intestinal S9 than in rat intestinal S9.

[16] = In vitro bioconversion study (intestinal S9 fractions), rat; format: in vitro ADME; conditions: rat intestinal S9 fraction 1 mg/mL, prodrug 2.5 μg/mL, 37° C.
From the text: as §1

[17] = In vitro bioconversion study (blood), rat; conditions: prodrug 2.5 μg/mL, 37° C.
Method: The in vitro bioconversion of the L-dopa phosphate prodrugs to L-dopa and the carbidopa phosphate prodrugs to carbidopa was evaluated in several studies. […] The reaction mixtures were incubated at 37° C. for 5 to 6 time points within 1 to 2 hours. At the end of each time point, the reaction mixtures were quenched by 2 to 3 volumes of 5% trichloroacetic acid in water. After quenching, the mixtures were centrifuged at 3000 rpm for 20 minutes, and the supernatants were analyzed by LC-MS for quantitation of the prodrug, L-dopa or carbidopa. The in vitro bioconversion was assessed by monitoring both time-dependent depletion of the prodrug and the formation of the corresponding L-dopa or carbidopa.

[18] = system: rats; assay: Local tolerability in rats, single SC bolus dose; format: in vivo; conditions: concentrations up to 125 mg/mL
[19] = listed as 3′,4′-diphosphate prodrug of carbidopa
[20] = listed as diphosphate prodrug of carbidopa
[21] = listed as diphosphate prodrug of L-dopa

Compound | % Remaining After One Day [2] [%] | Solubility [3] [mg/mL] | L-Dopa or Carbidopa Formation [4] | L-Dopa or Carbidopa Formation [5] | L-Dopa or Carbidopa Formation [6] | T1/2 [6] | L-Dopa or Carbidopa Formation [7] | T1/2 [7] | L-Dopa or Carbidopa Formation [8] | T1/2 [8] | stability and formation of L-dopa or carbidopa [9] | stability and formation of L-dopa or carbidopa [10] | stability and formation of L-dopa or carbidopa [11] | stability and formation of L-dopa or carbidopa [12] | stability and formation of L-dopa or carbidopa [13] | stability and formation of L-dopa or carbidopa [14] | L-Dopa or Carbidopa Formation [15] | L-Dopa or Carbidopa Formation [16] | L-Dopa or Carbidopa Formation [17] | T1/2 [17] [min] | other results
C[C@@](Cc1ccc(OP(=O)(O)O)c(OP(=O)(O)O)c1)(NN)C(=O)O [Carbidopa 3′,4′-diphosphate] | >99 | >247 | No | No | No | stable | No | stable | No | stable | stable without formation of L-dopa or carbidopa observed | stable without formation of L-dopa or carbidopa observed | stable without formation of L-dopa or carbidopa observed | stable without formation of L-dopa or carbidopa observed | stable without formation of L-dopa or carbidopa observed | stable without formation of L-dopa or carbidopa observed | Yes | Yes | Yes | 53 | % Remaining After One Day ([1]; pH 6.8): >97%; T1/2 [4, 19]: stable; T1/2 [4, 20]: not dephosphorylated; T1/2 [5, 19]: stable; T1/2 [5, 20]: not dephosphorylated; T1/2 [15, 20]: rapidly dephosphorylated; T1/2 [16, 20]: rapidly dephosphorylated
N[C@@H](Cc1ccc(OP(=O)(O)O)c(OP(=O)(O)O)c1)C(=O)O [L-dopa 3′,4′-diphosphate] | >99 | >330 | Yes | Yes | No | stable | No | stable | No | stable | stable without formation of L-dopa or carbidopa observed | stable without formation of L-dopa or carbidopa observed | stable without formation of L-dopa or carbidopa observed | stable without formation of L-dopa or carbidopa observed | stable without formation of L-dopa or carbidopa observed | stable without formation of L-dopa or carbidopa observed | Yes | Yes | Yes | 6 | % Remaining After One Day ([1]; pH 7.0): >99%; T1/2 [4]: 138 min; T1/2 [5]: 125 min; T1/2 [15, 21]: rapidly dephosphorylated; T1/2 [16, 21]: rapidly dephosphorylated; clinical signs or microscopic findings of local intolerance [18]: no adverse clinical signs or microscopic findings indicative of local intolerance
